Results taken from patent US10640497B2, “Microbiocidal oxadiazole derivatives” (SYNGENTA PARTICIPATIONS AG, priority 2015, dated 2020).

How the values were obtained:
[1] = tested on: Glomerella lagenarium (Colletotrichum lagenarium); experiment: Fungicidal activity against Glomerella lagenarium (Colletotrichum lagenarium), liquid culture, cucumber, preventative (anthracnose); format: cell-based; conditions: Colletotrichum orbiculare, liquid culture (PDB), growth inhibition measured photometrically 3-4 days after application, compared to untreated control
Outline: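 Glomerella lagenarium conidia in potato dextrose broth were exposed in 96-well plates to test compound diluted from DMSO stock with 0.025% Tween20 and incubated at 24 °C. Growth inhibition was read photometrically 3–4 days after application, as percent activity relative to untreated check.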

Phakopsora pachyrhizi = experiment: Fungicidal activity against Phakopsora pachyrhizi, soybean, leaf disc preventative (Asian soybean rust); format: in vivo; conditions: foliar, 288 h, 12-14 days after application, compared to untreated control
Outline: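 Soybean leaf discs on water agar were sprayed with compound diluted in water, then inoculated one day later with a spore suspension on the lower leaf surface. After 24-36 h dark at 20 °C, 75% rh, discs were held at 20 °C, 12 h light/day. Percent disease control versus untreated assessed 12-14 days post-application.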

[2] = tested on: Puccinia recondita f. sp. tritici; experiment: Fungicidal activity against Puccinia recondita f. sp. tritici, wheat, leaf disc curative (brown rust); format: in vivo; conditions: foliar, 144 h, wheat leaf segments, curative (applied 1 day after inoculation), 6-8 days after application, compared to untreated control
Outline: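 Wheat cv. Kanzler leaf segments on agar, inoculated with brown rust spores and kept dark at 19 °C, 75% rh; formulated compound sprayed 1 day after inoculation (curative). Incubated 19 °C, 75% rh, 12 h light/dark; percent disease control vs untreated scored 6–8 days after application.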

[3] = tested on: Puccinia recondita f. sp. tritici; experiment: Fungicidal activity against Puccinia recondita f. sp. tritici, wheat, leaf disc preventative (brown rust); format: in vivo; conditions: foliar, wheat leaf segments, preventative (inoculated 1 day after application), 7-9 days after application, compared to untreated control
Outline: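 Wheat cv. Kanzler leaf segments on water agar sprayed with compound (DMSO stock diluted in water), then inoculated with spore suspension 1 day later. Incubated at 19 °C, 75% rh, 12 h light/12 h dark; percent disease control versus untreated scored at 7-9 days after application.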

In the case of `O=C1CCON1Cc1ccc(-c2noc(C(F)(F)F)n2)cc1` [Compound A-5, 2-[[4-[5-(trifluoromethyl)-1,2,4-oxadiazol-3-yl]phenyl]methyl]isoxazolidin-3-one], the inhibition of growth at 20 ppm [1] is reported as at least 80%, the pest or weed control at 200 ppm (Phakopsora pachyrhizi) is reported as at least 80% and the pest or weed control at 200 ppm [2] is reported as at least 80%. It also gave a pest or weed control at 200 ppm [3] of at least 80% and a melting point of 54 to 58 °C.
In the case of `CC1CCN(Cc2ccc(-c3noc(C(F)(F)F)n3)cc2)C1=O` (stereo not drawn) [Compound A-7, 3-methyl-1-[[4-[5-(trifluoromethyl)-1,2,4-oxadiazol-3-yl]phenyl]methyl]pyrrolidin-2-one], the inhibition of growth at 20 ppm [1] is reported as at least 80%, the pest or weed control at 200 ppm (Phakopsora pachyrhizi) is reported as at least 80% and the pest or weed control at 200 ppm [2] is reported as at least 80%. It also gave a pest or weed control at 200 ppm [3] of at least 80% and a melting point of 83 to 88 °C.
Compound `O=C1C2C=CC(C2)N1Cc1ccc(-c2noc(C(F)(F)F)n2)cc1` (stereo not drawn) [Compound A-9, 3-[[4-[5-(trifluoromethyl)-1,2,4-oxadiazol-3-yl]phenyl]methyl]-3-azabicyclo[2.2.1]hept-5-en-2-one] has an inhibition of growth at 20 ppm [1] of at least 80%, a pest or weed control at 200 ppm (Phakopsora pachyrhizi) of at least 80% and a pest or weed control at 200 ppm [2] of at least 80%. For the same compound, the pest or weed control at 200 ppm [3] was at least 80% and the melting point was 50 to 53 °C.
With `O=C1CCCN1Cc1ccc(-c2noc(C(F)(F)F)n2)cc1F` [Compound A-22, 1-[[2-fluoro-4-[5-(trifluoromethyl)-1,2,4-oxadiazol-3-yl]phenyl]methyl]pyrrolidin-2-one] the inhibition of growth at 20 ppm [1] was at least 80%, the pest or weed control at 200 ppm (Phakopsora pachyrhizi) was at least 80% and the pest or weed control at 200 ppm [2] was at least 80%. The pest or weed control at 200 ppm [3] was at least 80% and the melting point was 55 to 60 °C.
`CN1CC(=O)N(Cc2ccc(-c3noc(C(F)(F)F)n3)cc2)CC1=O` [Compound A-26, 1-methyl-4-[[4-[5-(trifluoromethyl)-1,2,4-oxadiazol-3-yl]phenyl]methyl]piperazine-2,5-dione] showed an inhibition of growth at 20 ppm [1] of at least 80%, a pest or weed control at 200 ppm (Phakopsora pachyrhizi) of at least 80% and a pest or weed control at 200 ppm [2] of at least 80%. It also gave a pest or weed control at 200 ppm [3] of at least 80% and a melting point of 134 to 142 °C.
With `CC(C)(C)OC(=O)N1CCN(Cc2ccc(-c3noc(C(F)(F)F)n3)cc2)C(=O)C1` [Compound A-30, tert-butyl 3-oxo-4-[[4-[5-(trifluoromethyl)-1,2,4-oxadiazol-3-yl]phenyl]methyl]piperazine-1-carboxylate] the inhibition of growth at 20 ppm [1] was at least 80%, the pest or weed control at 200 ppm [2] was at least 80% and the pest or weed control at 200 ppm [3] was at least 80%. The melting point was 96 to 99 °C.
Work on `CNC(=O)N1CCN(Cc2ccc(-c3noc(C(F)(F)F)n3)cc2)C(=O)C1` [Compound A-33, N-methyl-3-oxo-4-[[4-[5-(trifluoromethyl)-1,2,4-oxadiazol-3-yl]phenyl]methyl]piperazine-1-carboxamide] yielded an inhibition of growth at 20 ppm [1] of at least 80%, a pest or weed control at 200 ppm (Phakopsora pachyrhizi) of at least 80% and a pest or weed control at 200 ppm [2] of at least 80%. For the same compound, the pest or weed control at 200 ppm [3] was at least 80% and the melting point was 114 to 118 °C.
`CN(C)C(=O)N1CCN(Cc2ccc(-c3noc(C(F)(F)F)n3)cc2)C(=O)C1` [Compound A-34, N,N-dimethyl-3-oxo-4-[[4-[5-(trifluoromethyl)-1,2,4-oxadiazol-3-yl]phenyl]methyl]piperazine-1-carboxamide] gave an inhibition of growth at 20 ppm [1] of at least 80%, a pest or weed control at 200 ppm (Phakopsora pachyrhizi) of at least 80% and a pest or weed control at 200 ppm [2] of at least 80%. The pest or weed control at 200 ppm [3] was at least 80% and the melting point was 111 to 114 °C.
In the case of `COCCNC(=O)N1CCN(Cc2ccc(-c3noc(C(F)(F)F)n3)cc2)C(=O)C1` [Compound A-38, N-(2-methoxyethyl)-3-oxo-4-[[4-[5-(trifluoromethyl)-1,2,4-oxadiazol-3-yl]phenyl]methyl]piperazine-1-carboxamide], the pest or weed control at 200 ppm (Phakopsora pachyrhizi) is reported as at least 80%, the pest or weed control at 200 ppm [2] is reported as at least 80% and the pest or weed control at 200 ppm [3] is reported as at least 80%. It also gave a melting point of 120 to 128 °C.
In the case of `CS(=O)(=O)N1CCN(Cc2ccc(-c3noc(C(F)(F)F)n3)cc2)C(=O)C1` [Compound A-41, 4-methylsulfonyl-1-[[4-[5-(trifluoromethyl)-1,2,4-oxadiazol-3-yl]phenyl]methyl]piperazin-2-one], the inhibition of growth at 20 ppm [1] is reported as at least 80%, the pest or weed control at 200 ppm (Phakopsora pachyrhizi) is reported as at least 80% and the pest or weed control at 200 ppm [2] is reported as at least 80%. For the same compound, the pest or weed control at 200 ppm [3] was at least 80% and the melting point was 155 to 160 °C.
With `O=C1CCCC(=O)N1Cc1ccc(-c2noc(C(F)(F)F)n2)cc1` [Compound A-49, 1-[[4-[5-(trifluoromethyl)-1,2,4-oxadiazol-3-yl]phenyl]methyl]piperidine-2,6-dione] the inhibition of growth at 20 ppm [1] was at least 80%, the pest or weed control at 200 ppm (Phakopsora pachyrhizi) was at least 80% and the pest or weed control at 200 ppm [2] was at least 80%. The pest or weed control at 200 ppm [3] was at least 80% and the melting point was 104 to 108 °C.
`O=C1CCC(=O)N1Cc1ccc(-c2noc(C(F)(F)F)n2)cc1` [Compound A-51, 1-[[4-[5-(trifluoromethyl)-1,2,4-oxadiazol-3-yl]phenyl]methyl]pyrrolidine-2,5-dione] showed an inhibition of growth at 20 ppm [1] of at least 80%, a pest or weed control at 200 ppm (Phakopsora pachyrhizi) of at least 80% and a pest or weed control at 200 ppm [2] of at least 80%. It also gave a pest or weed control at 200 ppm [3] of at least 80% and a melting point of 113 to 117 °C.
For `CC1(C)CCCN(Cc2ccc(-c3noc(C(F)(F)F)n3)c(F)c2)C1=O` [Compound A-54, 1-[[3-fluoro-4-[5-(trifluoromethyl)-1,2,4-oxadiazol-3-yl]phenyl]methyl]-3,3-dimethyl-piperidin-2-one], the inhibition of growth at 20 ppm [1] was at least 80%, the pest or weed control at 200 ppm (Phakopsora pachyrhizi) was at least 80% and the pest or weed control at 200 ppm [2] was at least 80%. For the same compound, the pest or weed control at 200 ppm [3] was at least 80% and the melting point was 69 to 73 °C.
Compound `CC(=O)N1CC(=O)N(Cc2ccc(-c3noc(C(F)(F)F)n3)cc2)C(=O)C1` [Compound A-55, 4-acetyl-1-[[4-[5-(trifluoromethyl)-1,2,4-oxadiazol-3-yl]phenyl]methyl]piperazine-2,6-dione] has an inhibition of growth at 20 ppm [1] of at least 80%, a pest or weed control at 200 ppm (Phakopsora pachyrhizi) of at least 80% and a pest or weed control at 200 ppm [2] of at least 80%. It also gave a pest or weed control at 200 ppm [3] of at least 80% and a melting point of 111 to 114 °C.
`CCOC(=O)N1CC(=O)N(Cc2ccc(-c3noc(C(F)(F)F)n3)cc2)C(=O)C1` [Compound A-57, ethyl 3,5-dioxo-4-[[4-[5-(trifluoromethyl)-1,2,4-oxadiazol-3-yl]phenyl]methyl]piperazine-1-carboxylate] showed an inhibition of growth at 20 ppm [1] of at least 80%, a pest or weed control at 200 ppm (Phakopsora pachyrhizi) of at least 80% and a pest or weed control at 200 ppm [3] of at least 80%. It also gave a melting point of 89 to 92 °C.
`CNC(=O)N1CC(=O)N(Cc2ccc(-c3noc(C(F)(F)F)n3)cc2)C(=O)C1` [Compound A-58, N-methyl-3,5-dioxo-4-[[4-[5-(trifluoromethyl)-1,2,4-oxadiazol-3-yl]phenyl]methyl]piperazine-1-carboxamide] showed an inhibition of growth at 20 ppm [1] of at least 80%, a pest or weed control at 200 ppm (Phakopsora pachyrhizi) of at least 80% and a pest or weed control at 200 ppm [3] of at least 80%. For the same compound, the melting point was 148 to 153 °C.
`O=C1CNC(=O)N1Cc1ccc(-c2noc(C(F)(F)F)n2)cc1` [Compound A-65, 3-[[4-[5-(trifluoromethyl)-1,2,4-oxadiazol-3-yl]phenyl]methyl]imidazolidine-2,4-dione] gave an inhibition of growth at 20 ppm [1] of at least 80%, a pest or weed control at 200 ppm (Phakopsora pachyrhizi) of at least 80% and a pest or weed control at 200 ppm [3] of at least 80%. The melting point was 200 to 203 °C.
In the case of `O=C1CCON1Cc1c(F)cc(-c2noc(C(F)(F)F)n2)cc1F` [Compound A-67, 2-[[2,6-difluoro-4-[5-(trifluoromethyl)-1,2,4-oxadiazol-3-yl]phenyl]methyl]isoxazolidin-3-one], the inhibition of growth at 20 ppm [1] is reported as at least 80%, the pest or weed control at 200 ppm (Phakopsora pachyrhizi) is reported as at least 80% and the pest or weed control at 200 ppm [2] is reported as at least 80%. For the same compound, the melting point was 75 to 80 °C.
